Assay results taken from PMC3523327 (Bioorganic & medicinal chemistry letters, 2012).

Biological target: HIV-1 integrase (IN), 3′-processing (Human immunodeficiency virus type 1 group M subtype B, UniProt P12497)
Experiment: in vitro IN assay, 3′-processing reaction
Format: biochemical
Conditions: not given

| SMILES | IC50 [µM] |
| --- | --- |
| Cc1cc2c(c(O)c1O)C(=O)N(Cc1ccc(F)c(Cl)c1)C2 [Compound 4b] | > 111 |
| CC(C)c1cc2c(c(O)c1O)C(=O)N(Cc1ccc(F)c(Cl)c1)C2 [Compound 4d] | > 111 |
| O=C1c2c(cc(-c3ccccc3)c(O)c2O)CN1Cc1ccc(F)c(Cl)c1 [Compound 4e] | > 111 |
| CN(C)S(=O)(=O)c1ccc(-c2cc3c(c(O)c2O)C(=O)N(Cc2ccc(F)c(Cl)c2)C3)cc1 [Compound 4h] | > 111 |
| CC(C)c1c(O)c(O)c2c(c1S(=O)(=O)N1CCOCC1)CN(Cc1ccc(F)c(Cl)c1)C2=O [Compound 5d-10] | > 111 |
| CCCCc1cc2c(c(O)c1O)C(=O)N(Cc1ccc(F)c(Cl)c1)C2 [Compound 4c] | > 111 |
| CCCCc1c(O)c(O)c2c(c1S(=O)(=O)N(C)C)CN(Cc1ccc(F)c(Cl)c1)C2=O [Compound 5c-2] | > 111 |
| CC(C)c1c(O)c(O)c2c(c1S(=O)(=O)N(C)C)CN(Cc1ccc(F)c(Cl)c1)C2=O [Compound 5d-2] | > 111 |

Biological target: HIV-1 integrase (IN), strand transfer (Human immunodeficiency virus type 1 group M subtype B, UniProt P12497)
Experiment: in vitro IN assay, strand transfer reaction
Format: biochemical
Conditions: ST IC50 of 5d-2 versus 4d

| SMILES | enhancement in the ST reaction relative to parent 4d [fold] |
| --- | --- |
| CC(C)c1c(O)c(O)c2c(c1S(=O)(=O)N(C)C)CN(Cc1ccc(F)c(Cl)c1)C2=O [Compound 5d-2] | 20 |

System: HIV-1 vector with N155H IN mutant
Experiment: not given
Conditions: cellular studies, HIV vectors bearing N155H mutant; ref [25]; cited from earlier work

| SMILES | loss of antiviral potency [fold] |
| --- | --- |
| Cc1nnc(C(=O)NC(C)(C)c2nc(C(=O)NCc3ccc(F)cc3)c(O)c(=O)n2C)o1 [raltegravir] | ~40 |
